Publication PMC9176062, “Phase Ib study of combinations of avadomide (CC‐122), CC‐223, CC‐292, and rituximab in patients with relapsed/refractory diffuse large B‐cell lymphoma” (EJHaem, 2022)
Values belong to the compound of their own block, whether it stands above or below them.

Legend:
[1] = Steady‐state plasma pharmacokinetics; assay type: in vivo; conditions: human, oral, CC‐223 + CC‐292 (arm C dose level 2, day 15)
Method: (§1) AEs were assessed according to the National Cancer Institute Common Terminology Criteria for AEs, version 4.03, up to 28 days after the last treatment. Blood samples for PK analysis were collected on days 15 to 28, predose, and at 1.5 and 3 h post‐dose on days 1 and 15 of cycle 1 for all dose cohorts. Additional blood samples were collected on day 15 from patients in dose level 2 of arm C to examine CC‐223 and CC‐292 steady‐state PK. Pharmacodynamic biomarkers of each novel agent were explored at baseline and cycle 1, day 1 (pre‐dose, and at 1.5 and 3 h) and cycle 1, day 15 (pre‐dose, and at 1.5 and 3 h), including cereblon modulation substrates in B and T cells in patients treated with CC‐122 and mTOR signaling pathway biomarkers (e.g., p4EBP1 and pAKT) in patients treated with CC‐223. Tumor assessments were performed at screening and at the end of even‐numbered cycles through cycle 6, then every three cycles through cycle 12, and every 6 months thereafter. Responses were assessed by the investigator per International Working Group 2007 criteria.
(§2) Safety analyses were performed on all patients who received ≥1 dose of study treatment (safety population). The PK population comprised all patients who took ≥1 dose of study treatment and had ≥1 measured drug concentration. […] The biomarker‐evaluable population comprised all patients who took ≥1 dose of study treatment and had ≥1 pharmacodynamic assessment. Safety and efficacy analyses were based on the safety population except where noted (PK and biomarkers). PK parameters were calculated using actual times relative to the most recent administration. The median duration of response (DOR) and median PFS were calculated per the Kaplan‐Meier method.
FIGURE S3 Summary of pharmacokinetic parameters and mean plasma concentration-time profiles of (A) CC-223 and (B) CC-292. Summary of pharmacokinetic parameters and mean plasma concentration-time profiles of (A) CC-223 and (B) CC-292. […] Data are geometric means (CV%) except for Tmax, for which medians (min, max) are presented.

pAKT = assay: mTOR signaling pathway biomarker pAKT in blood; assay type: in vivo, human
Method: as §1
as §2, with “Safety and efficacy analyses were based on the safety population except where noted (PK and biomarkers).” left out
(§3) Per cent change from baseline in Aiolos in CD3+ T cells (A) and CD19+ B cells (B) and in p4EBP1 (C) and pAKT (D) at 3 h post‐dose on day 1 of cycle 1 (biomarker‐evaluable population). The change in Aiolos expression in CD3+ T cells and CD19+ B cells was calculated within each avadomide‐ and CC‐223‐containing arm. *p ≤ 0.05 versus baseline; **p ≤ 0.01 versus baseline; ***p ≤ 0.001 versus baseline; DL, dose level; MEFL, molecules of equivalent fluorescence label; NS, not significant

p4EBP1 = assay: mTOR signaling pathway biomarker p4EBP1 in blood; assay type: in vivo, human
Method: as §1
as §2, with “Safety and efficacy analyses were based on the safety population except where noted (PK and biomarkers).” left out
as §3

patients with R/R DLBCL = assay: Treatment duration, modification, and exposure; assay type: in vivo
Method: CC‐122 hydrochloride, referred to here as CC‐122, as an active pharmaceutical ingredient in capsule (AIC) formulation, was administered orally once daily (QD). An alternate intermittent schedule of CC‐122 QD for five of every seven consecutive days (5/7), which improved tolerability and reduced the frequency and severity of neutropenia in a study of CC‐122 monotherapy in DLBCL, was also explored. CC‐292 was administered orally twice daily (BID) and CC‐223 was administered orally QD. Rituximab was administered on day 8 of cycle 1, day 1 of cycles 2–6, and day 1 of every third cycle thereafter. Patients in arm A received CC‐122 and CC‐223 with or without rituximab (starting at CC‐122 2 mg QD and CC‐223 20 mg QD), patients in arm B received CC‐122 plus CC‐292 with or without rituximab (starting at CC‐122 2 mg QD and CC‐292 500 mg BID), patients in arm C were treated with CC‐223 and CC‐292 (starting at CC‐223 20 mg QD and CC‐292 500 mg BID), and those in arm D received CC‐122 plus rituximab (starting at CC‐122 2 mg QD). In arm D, a CC‐122 3 mg formulated capsule was introduced with the same strength as CC‐122 3 mg AIC. Each dose level was cleared before the next was started. If unacceptable toxicity occurred at the initial dose level, dose reductions for CC‐122 (1.5 mg QD and 1 mg QD) and CC‐223 (15 mg QD) were allowed; no starting dose reductions for CC‐292 were planned. For arm A, the Safety Review Committee (SRC) determined which of the two drugs in the doublet to reduce. For arms B and D, the CC‐122 dose was reduced and for arm C, the CC‐223 dose was reduced. Assignment of patients to study arms was at the discretion of the investigator and based on slot availability per the study design.
Patients who experienced dose‐limiting toxicity (DLT) after receiving ≥1 dose of study treatment or those who received ≥80% of planned doses of CC‐122, CC‐223, CC‐292, and rituximab during cycle 1 without experiencing a DLT were considered DLT‐evaluable. If zero out of ≥3 or ≤1 out of six evaluable patients in a cohort experienced a DLT during cycle 1 in parallel dose cohorts, then dose escalation could occur. DLTs are defined in the Supplementary Materials; individual investigators performed response assessments and determined DLTs. The NTD was defined as the dose level at which ≥2 of six evaluable patients in a cohort experienced a DLT during cycle 1. […] During cycle 1, any adverse event (AE) that led to dose reduction was considered a DLT. Patients could resume CC‐122 at a reduced dose only if they recovered to grade ≤1 within 14 days of dose interruption; two dose reductions were allowed before the patient was withdrawn from the study. Dose reductions were permitted for CC‐122, CC‐223, and CC‐292; no dose reductions were allowed for rituximab, but treatment could be discontinued at the discretion of the investigator. […] For arms A, B, and D, CC‐122 dosing was modified to the intermittent 5/7‐day schedule based on SRC review and escalated until the MTD/RP2D was established. Treatment was given until disease progression, unacceptable toxicity, or patient/physician decision to withdraw consent.
^aTreatment duration defined as date of last derived dose – date of first dose + 1.
^bDefined as the ratio of actual dose received to planned dose over the treatment period.

DOHH2 cells = assay: DOHH2 xenograft model; assay type: in vivo; conditions: DLBCL xenograft model (DOHH2, SCID mice); avadomide oral once daily, rituximab 1 mg/kg once weekly
Method: Female severe combined immunodeficiency (SCID) mice (CB17/Icr-Prkdcscid, Charles River) were 8 weeks old, with body weights ranging from 15.0 g to 23.2 g on day 1 of these studies. Each SCID mouse was injected subcutaneously in the right flank with 5 × 10^6 DOHH2 cells (0.2-mL cell suspension). Tumors were calipered in 2 dimensions to monitor growth as their mean volume approached 100 to 150 mm^3. Fourteen days after tumor cell implantation, mice were sorted into treatment groups of 10 mice per group. Tumors were calipered twice weekly during the study. Avadomide was suspended in 0.5% carboxymethyl cellulose (0.25% Tween-80 in deionized water). Vehicle control and avadomide were each administered via oral gavage once daily; rituximab (1 mg/kg) was administered once weekly for the duration of the study.
FIGURE S1 Change in the percentage of apoptotic cells over time (A) and in vivo tumor growth response after combination treatment with avadomide and rituximab (B). Natural killer cell activity against DOHH or RL FL cell lines determined by flow cytometry is shown (A). Female CB17 severe combined immunodeficiency mice implanted subcutaneously with DOHH2 cells were administered vehicle and avadomide once daily and rituximab given 1 mg/kg once weekly (B). SEM, standard error of the mean; TGI, tumor growth inhibition. mm^3

[2] = arm A (with CC‐122), 20 mg of CC‐223, 3 h post‐dose vs baseline
[3] = arm C (with CC‐292), 20 mg of CC‐223, 3 h post‐dose
[4] = arm C (with CC‐292), CC‐223 15 mg
[5] = Overall (all arms with the drug)

- clearance ([1]; read-out: apparent plasma clearance (converted)): ~405 mL/min
- Vd ([1]; read-out: mean apparent volume of distribution): 127 L
- Tmax ([1]; read-out: median Tmax): 1.5 h
- half-life ([1]; read-out: terminal half‐life (converted)): ~3.6 h
- ≥1 dose interruption (patients with R/R DLBCL; Arm A (Avadomide + CC-223 ± R)): 25 (80.6) n (%)
- ≥1 dose interruption: Other (patients with R/R DLBCL; Arm A (Avadomide + CC-223 ± R)): 10 (32.3) n (%)
- ≥1 dose interruption: Per protocol (patients with R/R DLBCL; Arm A (Avadomide + CC-223 ± R)): 1 (3.2) n (%)
- ≥1 dose reduction (patients with R/R DLBCL; Arm A (Avadomide + CC-223 ± R)): 10 (32.3) n (%)
- ≥1 dose reduction: Other (patients with R/R DLBCL; Arm A (Avadomide + CC-223 ± R)): 2 (6.5) n (%)
- ≥1 dose reduction: Per protocol (patients with R/R DLBCL; Arm A (Avadomide + CC-223 ± R)): 0 n (%)
- ≥1 dose interruption (patients with R/R DLBCL; Arm C (CC-292 + CC-223)): 9 (64.3) n (%)
- ≥1 dose interruption: Other (patients with R/R DLBCL; Arm C (CC-292 + CC-223)): 3 (21.4) n (%)
- ≥1 dose interruption: Per protocol (patients with R/R DLBCL; Arm C (CC-292 + CC-223)): 1 (7.1) n (%)
- ≥1 dose reduction (patients with R/R DLBCL; Arm C (CC-292 + CC-223)): 1 (7.1) n (%)
- ≥1 dose reduction: Other (patients with R/R DLBCL; Arm C (CC-292 + CC-223)): 0 n (%)
- ≥1 dose reduction: Per protocol (patients with R/R DLBCL; Arm C (CC-292 + CC-223)): 0 n (%)
- ≥1 dose interruption (patients with R/R DLBCL; [5]): 34 (75.6) n (%)
- ≥1 dose interruption: Other (patients with R/R DLBCL; [5]): 13 (28.9) n (%)
- ≥1 dose interruption: Per protocol (patients with R/R DLBCL; [5]): 2 (4.4) n (%)
- ≥1 dose reduction (patients with R/R DLBCL; [5]): 11 (24.4) n (%)
- ≥1 dose reduction: Other (patients with R/R DLBCL; [5]): 2 (4.4) n (%)
- ≥1 dose reduction: Per protocol (patients with R/R DLBCL; [5]): 0 n (%)
- patients with dose reductions of the drug (patients with R/R DLBCL; all patients who received the drug): 24.4%
Compound: CO[C@H]1CC[C@H](N2C(=O)CNc3ncc(-c4ccc(C(C)(C)O)nc4)nc32)CC1 [CC‐223]
- median reduction in pAKT levels (pAKT; [2]): ~70%
- median reduction of pAKT levels (pAKT; [3]): approximately 50%
- reduction of pAKT levels (pAKT; [4]): approximately 50%
- median reduction in p4EBP1 levels (p4EBP1; [2]): approximately 30%
- increase of p4EBP1 levels from baseline (p4EBP1; [3]): approximately 8%
- reduction of p4EBP1 (p4EBP1; [4]): approximately 30%
- ≥1 dose interruption: Adverse event (patients with R/R DLBCL; Arm A (Avadomide + CC-223 ± R)): 23 (74.2) n (%)
- ≥1 dose reduction: Adverse event (patients with R/R DLBCL; Arm A (Avadomide + CC-223 ± R)): 7 (22.6) n (%)
- ≥1 dose interruption: Adverse event (patients with R/R DLBCL; Arm C (CC-292 + CC-223)): 8 (57.1) n (%)
- ≥1 dose reduction: Adverse event (patients with R/R DLBCL; Arm C (CC-292 + CC-223)): 1 (7.1) n (%)
- ≥1 dose interruption: Adverse event (patients with R/R DLBCL; [5]): 31 (68.9) n (%)
- ≥1 dose reduction: Adverse event (patients with R/R DLBCL; [5]): 8 (17.8) n (%)

Compound: rituximab [reference compound]
- tumor growth inhibition (TGI) (DOHH2 cells): 19%
- ≥1 dose interruption (patients with R/R DLBCL; Arm A (Avadomide + CC-223 ± R)): 9 (47.4) n (%)
- ≥1 dose interruption: Adverse event (patients with R/R DLBCL; Arm A (Avadomide + CC-223 ± R)): 6 (31.6) n (%)
- ≥1 dose interruption: Other (patients with R/R DLBCL; Arm A (Avadomide + CC-223 ± R)): 5 (26.3) n (%)
- ≥1 dose interruption (patients with R/R DLBCL; Arm B (Avadomide + CC-292 ± R)): 2 (16.7) n (%)
- ≥1 dose interruption: Adverse event (patients with R/R DLBCL; Arm B (Avadomide + CC-292 ± R)): 2 (16.7) n (%)
- ≥1 dose interruption: Other (patients with R/R DLBCL; Arm B (Avadomide + CC-292 ± R)): 1 (8.3) n (%)
- ≥1 dose interruption (patients with R/R DLBCL; Arm D (Avadomide + R)): 2 (6.7) n (%)
- ≥1 dose interruption: Adverse event (patients with R/R DLBCL; Arm D (Avadomide + R)): 1 (3.3) n (%)
- ≥1 dose interruption: Other (patients with R/R DLBCL; Arm D (Avadomide + R)): 2 (6.7) n (%)
- ≥1 dose interruption (patients with R/R DLBCL; [5]): 13 (21.3) n (%)
- ≥1 dose interruption: Adverse event (patients with R/R DLBCL; [5]): 9 (14.8) n (%)
- ≥1 dose interruption: Other (patients with R/R DLBCL; [5]): 8 (13.1) n (%)
